23 compounds from ChEMBL document CHEMBL1221187, “Histone deacetylase inhibitors reverse gene silencing in Friedreich's ataxia” (Nat Chem Biol, 2006) can be followed below.

The target of one series is Histone deacetylase. In words: Inhibition of HDAC in human HeLa cell extract by fluorescence plate reader assay. Type of series: cell-free.
Series [1] deals with GM15850. In words: Increase in FXN mRNA expression in human GM15850 cells at 5 uM after 96 hrs by qRT-PCR analysis relative to control. Type of series: functional. A general note: Quantitative PCR measures a nucleic acid by following its amplification.
Series [2] is described as follows: Cytotoxicity against human GM15850 cells at 5 uM after 96 hrs by trypan blue exclusion assay. Type of series: cell-based. The settings on record: gm15850, 96 h.
Series [3] deals with GM15850. In words: Increase in FXN mRNA expression in human GM15850 cells at 10 uM after 96 hrs by qRT-PCR analysis relative to control. In kind it is functional.
Series [4] relates to Lymphocyte. Briefly: Increase in FXN mRNA expression in lymphocytes isolated from patient with Friedreich's ataxia at 10 uM after 48 hrs by qRT-PCR analysis. In kind it is functional, cell-based. Particulars: Homo sapiens.
Series [5] has as its system GM15850. In words: Increase in FXN mRNA expression in human GM15850 cells at 5 uM after 12 hrs by qRT-PCR analysis relative to control. Type of series: functional.
A short description of series [6]: Cytotoxicity against human GM15850 cells at 5 uM after 12 hrs by trypan blue exclusion assay. In kind it is cell-based. The settings on record: gm15850, 12 h.
Series [7] has as its system GM15850. In words: Increase in frataxin protein level in human GM15850 cells at 5 uM after 4 days by SDS-PAGE relative to control. Type of series: functional.
For series [8], the system named is Lymphocyte. In words: Increase in FXN mRNA expression in lymphocytes isolated from patient with Friedreich's ataxia at 2.5 uM after 48 hrs by qRT-PCR analysis. Type of series: functional, Homo sapiens.
Series [9] has as its system Lymphocyte. In words: Effect on FXN mRNA expression in healthy human lymphocytes at 2.5 uM after 48 hrs by qRT-PCR analysis. In kind it is functional, cell-based.
The nature of series [10]: Cytotoxicity against lymphocytes isolated from patient with Friedreich's ataxia at 2.5 to 5 uM after 48 hrs by trypan blue exclusion assay. Type of series: cell-based. Particulars: human, lymphocyte.
For series [11], the system named is Lymphocyte. Briefly: Increase in FXN mRNA expression in lymphocytes isolated from patient with Friedreich's ataxia at 5 uM after 48 hrs by qRT-PCR analysis. In kind it is functional, Homo sapiens.
Series [12] deals with Lymphocyte. Briefly: Increase in FXN mRNA expression in lymphocytes isolated from patient with Friedreich's ataxia at 5 uM after 48 hrs by qRT-PCR analysis relative to control. In kind it is functional, Homo sapiens.
In series [13] the test system is Lymphocyte. In words: Increase in FXN mRNA expression in healthy human lymphocytes at 5 uM after 48 hrs by qRT-PCR analysis. In kind it is functional.
Series [14] relates to Lymphocyte. In words: Increase in FXN mRNA expression in lymphocytes isolated from patient with Friedreich's ataxia at 2.5 to 7.5 uM after 48 hrs by qRT-PCR analysis. Type of series: functional, cell-based. Particulars: Homo sapiens.
For series [15], the system named is GM15850. Briefly: Increase in frataxin protein level in human GM15850 cells at 2.5 uM after 4 days by SDS-PAGE relative to control. In kind it is functional.
In series [16] the test system is Lymphocyte. Briefly: Increase in FXN mRNA expression in lymphocytes isolated from patient with Friedreich's ataxia at 5 uM after 48 hrs by qRT-PCR analysis relative to mRNA level in healthy human lymphocytes. In kind it is functional.
Series [17] has as its system Lymphocyte. Briefly: Increase in FXN mRNA expression in lymphocytes isolated from patient with Friedreich's ataxia at 10 uM after 48 hrs by qRT-PCR analysis relative to mRNA level in healthy human lymphocytes. Type of series: functional.
Series [18] concerns the target T1, Histone deacetylase (Homo sapiens) (UniProt Q13547+O15379+Q9UBN7+Q92769+Q9UQL6+Q8WUI4+Q9BY41+Q96DB2+P56524+Q9UKV0+Q969S8). In words: Inhibition of HDAC in human GM15850 cells assessed as increase in histone H3 lysine 14 acetylation of FXN gene at 5 uM after 96 hrs by chromatin immunoprecipitation assay. Type of series: cell-based.
Series [19] concerns the target T1, Histone deacetylase (Homo sapiens). Briefly: Inhibition of HDAC in human GM15850 cells assessed as increase in histone H4 lysine 5 acetylation of FXN gene at 5 uM after 96 hrs by chromatin immunoprecipitation assay. In kind it is cell-based.
The target is the same in series [20]. Briefly: Inhibition of HDAC in human GM15850 cells assessed as increase in histone H4 lysine 12 acetylation of FXN gene at 5 uM after 96 hrs by chromatin immunoprecipitation assay. In kind it is cell-based.
Series [21] shares this target. Briefly: Inhibition of HDAC in human GM15850 cells assessed as increase in histone H3 lysine 9 acetylation of FXN gene at 5 uM after 96 hrs by chromatin immunoprecipitation assay. Type of series: cell-based.
For series [22] the target is unchanged. Briefly: Inhibition of HDAC in human GM15850 cells assessed as increase in histone H4 lysine 8 acetylation of FXN gene at 5 uM after 96 hrs by chromatin immunoprecipitation assay. In kind it is cell-based.
Series [23] shares this target. Briefly: Inhibition of HDAC in human GM15850 cells assessed as increase in histone H4 lysine 16 acetylation of FXN gene at 5 uM after 96 hrs by chromatin immunoprecipitation assay. In kind it is cell-based.
The target is the same in series [24]. In words: Inhibition of HDAC in human GM15850 cells assessed as increase in total acetylated histone level at 400 uM after 12 hrs by Western blot analysis. In kind it is cell-based.
Series [25] is described as follows: Decrease in FXN mRNA expression in human GM15850 cells at 5 uM after 12 hrs by qRT-PCR analysis. Type of series: functional, cell-based.
Series [26] concerns GM15850. In words: Effect on FXN mRNA expression in human GM15850 cells at 5 uM after 12 hrs by qRT-PCR analysis. In kind it is functional, cell-based.

Activity calls are given as the source filed them. The calls are words filed in the database; no cut-off is given here. Some results are limits rather than exact numbers.

In general, IC50 refers to the concentration at which inhibition is half-maximal. The low end stands for inhibition by little substance, the high end for a need for much substance. What is called inhibition is the share of the control response that was lost under treatment.

On to `Nc1cccc(NC(=O)CCCCCC(=O)Nc2ccccc2)c1`, for which the IC50 at Histone deacetylase was 500 µM. Further, the “fold change (FC)” value in the series with GM15850 [1] worked out at 1.5. Besides, the Activity entry in series [2] is listed as “Non-toxic”.

The compound `Nc1ccccc1NC(=O)CCCCCC(=O)Nc1ccccc1N` came in with an IC50 against Histone deacetylase of 14 µM. Besides, the “fold change (FC)” value with GM15850 [1] is given as 3.1; in the series on GM15850 [3], 3.5. Moreover, the Activity result in series [2] is “Non-toxic”. The outcome in the series on Lymphocyte [4] was Active.

`O=C(CCCCCC(=O)Nc1ccccc1)Nc1ccccc1`: in series [2], the Activity result is recorded as “Non-toxic”.

For `COc1cccc(NC(=O)CCCCCC(=O)Nc2ccccc2)c1`, the IC50 at Histone deacetylase is over 1 µM. Also, the “fold change (FC)” value in the series on GM15850 [1] was found to be 1.8. Also, the Activity result in series [2] is “Non-toxic”.

With `COc1ccc(NC(=O)CCCCCC(=O)Nc2ccccc2)c(OC)c1`, at Histone deacetylase, the IC50 was 387 µM. Further, the “fold change (FC)” value with GM15850 [1] was 1.5. The Activity entry in series [2] is “Non-toxic”.

`Nc1ccccc1NC(=O)CCCCCC(=O)Nc1ccccn1`: the half-inhibitory concentration (IC50) at Histone deacetylase was found to be 91 µM. In the series with GM15850 [1], the “fold change (FC)” value is listed as 2.4. The Activity entry in series [2] is “Non-toxic”. Moreover, the result with Lymphocyte [4] was Active.

`O=C(CCCCCC(=O)Nc1cccc2cccnc12)Nc1ccccc1` registered an IC50 on Histone deacetylase of 17 µM. For the same compound, the “fold change (FC)” value in the series with GM15850 [1] worked out at 3. In [2], the Activity entry was “Non-toxic”.

In turn, `Nc1ccccc1NC(=O)CCCCC(=O)Nc1ccccc1` displayed an IC50 on Histone deacetylase of 238 µM. Besides, in the series with GM15850 [1], the “fold change (FC)” value is 1.4. Also, in series [2], the Activity result is “Non-toxic”.

As to `Nc1ccccc1NC(=O)CCCCCCC(=O)Nc1ccccc1`, the “fold change (FC)” value in the series with GM15850 [5] is on record as 2; in the series on GM15850 [1], 1.4; with GM15850 [7], 3; in the series on Lymphocyte [12] it was 1.8. The Activity result in [6] is listed as “Non-toxic”; in series [2] it was “Non-toxic”; with Lymphocyte [8] it was 33%; in series [10], “Non-toxic”; with Lymphocyte [11], 80%. Moreover, the 50% inhibitory concentration (IC50) against Histone deacetylase came to 87 µM. Besides, the result with Lymphocyte [9] and with Lymphocyte [13] was inactive.

Regarding `Nc1cccc(NC(=O)CCCCCCC(=O)Nc2ccccc2)c1`, the half-inhibitory concentration (IC50) at Histone deacetylase was 85 µM. Further, in the series with GM15850 [1], the “fold change (FC)” value came out at 2.1. For the same compound, in series [2], the Activity entry was “Non-toxic”.

As to `Nc1ccc(NC(=O)CCCCCC(=O)Nc2ccccc2)cc1`, at Histone deacetylase, the half-inhibitory concentration (IC50) is 123 µM. The “fold change (FC)” value in the series on GM15850 [1] was 2.6. Also, the Activity result in series [2] is recorded as “Non-toxic”. For the same compound, in the series with Lymphocyte [4], the outcome was inactive.

`COc1ccccc1NC(=O)CCCCCC(=O)Nc1ccccc1`: on Histone deacetylase, the IC50 is 54 µM. Also, in the series on GM15850 [1], the “fold change (FC)” value was 2.3. Moreover, in [2], the Activity result is reported as “Non-toxic”.

For the compound `Nc1ccccc1NC(=O)CCCCCC(=O)Nc1ccccc1`, the result (with Lymphocyte [14]; in series [18]; in series [19]; in series [20]) was Active. This compound also showed an IC50 at Histone deacetylase of 78 µM. In addition, the “fold change (FC)” value was found to be 2.5 with GM15850 [1], 3 in the series with GM15850 [15] and 2.3 with Lymphocyte [12]. The Activity entry is reported as “Non-toxic” in series [2]; 33% in the series on Lymphocyte [8]; “Non-toxic” in series [10]; 130% in the series with Lymphocyte [11]; 38% in the series on Lymphocyte [13]; 80% in the series on Lymphocyte [16]. The same compound came in with an Activity in the series on Lymphocyte [17] of 160%. In addition, the result (in the series with Lymphocyte [9]; in series [21]; in series [22]; in series [23]) was inactive.

As to `COc1ccc(NC(=O)CCCCCC(=O)Nc2ccccc2)cc1`, on Histone deacetylase, the 50% inhibitory concentration (IC50) was 438 µM. Moreover, the “fold change (FC)” value in the series on GM15850 [1] came out at 2.5. In addition, the Activity result in series [2] was “Non-toxic”.

Consider `O=C(CCCCCC(=O)Nc1ccccn1)Nc1ccccc1`, for which the IC50 against Histone deacetylase stood at 140 µM. In addition, the “fold change (FC)” value with GM15850 [1] turned out to be 2.6. In series [2], the Activity entry was “Non-toxic”.

In turn, `O=C(CCCCCCC(=O)Nc1ccccn1)Nc1ccccc1` yielded a 50% inhibitory concentration (IC50) against Histone deacetylase of 99 µM. In the series on GM15850 [1], the “fold change (FC)” value was found to be 2. Also, in series [2], the Activity result was “Non-toxic”. Further, in the series with Lymphocyte [4], the result was inactive.

In turn, `Nc1ccc(NC(=O)CCCCCCC(=O)Nc2ccccc2)cc1` had an IC50 against Histone deacetylase of 186 µM. In addition, in the series with GM15850 [1], the “fold change (FC)” value is 2. Besides, the Activity entry in series [2] is “Non-toxic”.

Turning to `CC(/C=C/C(=O)NO)=C\[C@@H](C)C(=O)c1ccc(N(C)C)cc1` [TRICHOSTATIN], the Activity result in [2] is “Toxic”.

`CCCC(CCC)C(=O)O` [VALPROIC ACID]: the inhibition entry in [24] was “Active”. For the same compound, the Activity entry in [2] is recorded as “Non-toxic”.

For the compound `O=C(CCCCCCC(=O)NO)NO` [SUBEROHYDROXAMIC ACID], in [25], the inhibition worked out at 50%. The Activity result in [2] is recorded as “Non-toxic”.

`O=C(CCCCCCC(=O)Nc1ccccc1)NO` [VORINOSTAT]: the outcome in the series with GM15850 [26] was inactive. In addition, the Activity entry in [2] is “Toxic”.

`COc1ccccc1NC(=O)CCCCCCC(=O)Nc1ccccc1` had an IC50 against Histone deacetylase of 470 µM. Also, the “fold change (FC)” value in the series on GM15850 [1] stood at 1.8. For the same compound, the Activity entry in series [2] is listed as “Non-toxic”.

`O=C(CCCCCC(=O)Nc1cnc2ccccc2c1)Nc1ccccc1` registered a half-maximal inhibitory concentration (IC50) at Histone deacetylase of 84 µM. Further, in the series on GM15850 [1], the “fold change (FC)” value was found to be 2.5. Besides, in [2], the Activity result is listed as “Non-toxic”.
